This assay has as its system MOLP8 cells. Briefly: MOLP8 CellEvent Caspase-3/7 Green apoptosis activation assay (IncuCyte live-cell kinetic readout). In kind it is cell-based. The following applies: each independent run listed. As for the experimental part: MCL-1 is a regulator of apoptosis and is highly over-expressed in tumor cells that escape cell death. The assay evaluates the cellular potency of small-molecule compounds targeting regulators of the apoptosis pathway, primarily MCL-1, Bfl-1, Bcl-2, and other proteins of the Bcl-2 family. Protein-protein inhibitors disrupting the interaction of anti-apoptotic regulators with BH3-domain proteins initiate apoptosis.
Activation of the apoptotic pathway was measured using the CellEvent™ Caspase-3/7 Green ReadyProbes™ Reagent (Thermo Fisher C10423, C10723). This assay produces a green fluorescent stain in cells that enter the apoptosis pathway. CellEvent® Caspase-3/7 Green reagent is a four amino acid peptide (DEVD) conjugated to a nucleic acid-binding dye that is non-fluorescent when not bound to DNA. The CellEvent® Caspase-3/7 Green reagent is intrinsically non-fluorescent, as the DEVD peptide inhibits binding of the dye to DNA. Upon activation of caspase-3/7 in apoptotic cells, the DEVD peptide is cleaved and the free dye can bind DNA, generating a bright green fluorescence. The activation of Caspase-3 and Caspase-7 is downstream of inhibition of MCL-1 or other apoptosis inhibiting proteins in cell lines that are dependent on them.
The live-cell readout on the IncuCyte permits tracking over time of the Caspase activation. […] The IncuCyte readout also allows one to normalize for cell number, as the suspension cells are hard to distribute evenly.
Signals were measured every 2 h for a duration of 22 h. The ratio of the Caspase mask to the Confluence mask, per image, as raw data, was calculated and the kinetic trace for every well was exported to Genedata Screener for analysis.
In Genedata Screener values for 6 h, 12 h, and 22 h from the kinetic traces were extracted. The values were normalized against negative controls (untreated cells). A standard dose-response analysis was performed on the normalized data.
The following data was reported at each of the following three aforementioned time points: (a) The dose-response curve, (b) The qAC50 and qAC50 Mode, and (c) Max Activity.
Cells were maintained in culture medium containing 10% Heat Inactivated (HI) FBS, 2 mM L-Glutamine and 50 µg/mL Gentamycin phenol red free RPMI-1640. Cells were split at 0.4 million/mL twice a week.
On Day 1, plates containing individual wells with test compounds at 10 mM concentration, 150 nL per well. The final concentrations range from […] compound (and no compound control) and compounds were thawed at room temperature for 1 hour. 25 μl of prewarmed medium was added into each well by multidrop (column 1, 3-22, 24), followed by addition of DMSO control (0.6% DMSO) in column 2. The plate was sealed using Breathe-Easy® sealing membrane and shaken for 30 min at room temperature to dissolve the test compound(s) in medium. The plate was then kept in the incubator for 1 hour at 37° C., 5% CO2.
MOLP8 cells in medium at […] (20000/50 μl final in assay) were prepared with CellEvent™ Caspase-3/7 Green Detection Reagent at 4 μM (2 μM final in assay). Once prepared, the cells were added to the test compound plate in an amount of 20000 and the plate was immediately placed in the IncuCyte and imaging started using following settings: 10× objective, 2 s exposure time in green channel, interval of 2 h, acquisition stopped after 22 h.
For analysis in IncuCyte, a Basic Analysis protocol was defined to calculate the “confluence” and “caspase” areas from the “Phase” and “green” images, respectively, as follows: (a) Confluence: Segmentation Adjustment 1, Hole Fill 0, Adjust Size −2, No filters (b) Caspase: Top-Hat segmentation, Radius 10, Threshold 0.3 GCU, Edge Split On with sensitivity 0, Hole Fill 0, Adjust Size 1, and filter on a minimum Area of 20 μm^2. The analyzer is trained on a sufficient number of positive and negative control wells, as well as compound treated wells, verifying that the “confluence” layer detects both live and dead (condensed) cells. […]

[1] abbreviates: 6 h, read-out: MOLP8 Caspase 3/7 AC50 at 6 h.
Where [2] appears, read: 12 h, read-out: MOLP8 Caspase 3/7 AC50 at 12 h.
Setting [3] is: 22 h, read-out: MOLP8 Caspase 3/7 AC50 at 22 h.

“And” between values parts separate entries of the source, which are not always exact repeats. Equal entries are not always repeated. Where two headings read alike, the source gives them in different places.

As to `Cc1c(C(=O)O)n2c3ccc(Cl)c(c13)-c1c(nn(C)c1C)CSCc1cc(n(C)n1)CSc1cc(c3ccccc3c1)OCCC2` (single isomer, unassigned) [Compound 1, 1^5-chloro-1^3,2^1,2^5,6^1-tetramethyl-1^1H,2^1H,6^1H-10-oxa-4,8-dithia-1(4,1)-indola-2(4,3),6(3,5)-dipyrazola-9(3,1)-naphthalenacyclotridecaphane-1^2-carboxylic acid], the AC50 was 178 nM and 129 nM under setting [1]; 141 nM and 182 nM under setting [2]; 145 nM and 170 nM under setting [3].

In the case of `Cc1c(C(=O)O)n2c3ccc(Cl)c(c13)-c1c(nn(C)c1C)CSCc1cc(n(C)n1)CSc1cc(c3ccccc3c1)OCCC2` (single isomer, unassigned) [Compound 2, 1^5-chloro-1^3,2^1,2^5,6^1-tetramethyl-1′H,2′H,6H-10-oxa-4,8-dithia-1(4,1)-indola-2(4,3),6(3,5)-dipyrazola-9(3,1)-naphthalenacyclotridecaphane-1^2-carboxylic acid], the AC50 is 4570 nM and 4790 nM under setting [1]; 4470 nM and 4680 nM under setting [2]; 4270 nM and 4470 nM under setting [3].

For the origin of these results see patent US20220306653A1, “MACROCYCLIC INHIBITORS OF MCL-1” (Janssen Pharmaceutica NV, priority 2019, published 2022).
